In ChEMBL document CHEMBL1201862, “PubChem BioAssay data set” (2004):
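96-well plates; 48 h exposure; 5 concentrations. Endpoints by linear interpolation between flanking doses. Not reached: highest tested concentration assigned. Abbreviation: GI50, concentration required for 50% inhibition of growth.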 The source made the active and inactive calls. Rule as the data show it: active = GI50 up to about 1.1 µM and inactive = higher.

Legend:
Experiment in all cases: growth of human tumour cells (NCI), 48 h
SK-MEL-2 = tested on: SK-MEL-2
LOX IMVI = tested on: LOX IMVI
UO-31 = tested on: UO-31
RXF 631 = tested on: RXF 631
SF-295 = tested on: SF-295
SF-268 = tested on: SF-268
KM12 = tested on: KM12
EKVX = tested on: EKVX
HOP-92 = tested on: HOP-92
Malme-3M = tested on: Malme-3M
COLO 205 = tested on: COLO 205
M14 = tested on: M14
HOP-18 = tested on: HOP-18
SNB-75 = tested on: SNB-75
HCT-15 = tested on: HCT-15
ACHN = tested on: ACHN
OVCAR-4 = tested on: OVCAR-4
SNB-78 = tested on: SNB-78
SF-539 = tested on: SF-539
SW-620 = tested on: SW-620
NCI-H226 = tested on: NCI-H226
SN12C = tested on: SN12C
NCI-H522 = tested on: NCI-H522
RXF 393 = tested on: RXF 393
OVCAR-5 = tested on: OVCAR-5
SK-MEL-5 = tested on: SK-MEL-5
HCT-116 = tested on: HCT-116
NCI-H23 = tested on: NCI-H23
SNB-19 = tested on: SNB-19
HL-60 = tested on: HL-60
UACC-62 = tested on: UACC-62
LXFL 529 = tested on: LXFL 529
A549 = tested on: A549
HCC 2998 = tested on: HCC 2998
NCI-H460 = tested on: NCI-H460
IGROV-1 = tested on: IGROV-1
UACC-257 = tested on: UACC-257
OVCAR-3 = tested on: OVCAR-3
M19-MEL = tested on: M19-MEL
HT-29 = tested on: HT-29
DMS-114 = tested on: DMS-114
HOP-62 = tested on: HOP-62
OVCAR-8 = tested on: OVCAR-8
A498 = tested on: A498
KM-20L2 = tested on: KM-20L2
U-251 = tested on: U-251
CCRF-CEM = tested on: CCRF-CEM
TK-10 = tested on: TK-10
SK-MEL-28 = tested on: SK-MEL-28
786-0 = tested on: 786-0
DLD-1 = tested on: DLD-1

Measured: GI50

CCCCCCCCCCCCCP(=O)(O)OCC
inactive: SK-MEL-2 > 100 µM | LOX IMVI > 100 µM | UO-31 > 100 µM | RXF 631 > 100 µM | SF-295 > 100 µM | SF-268 > 100 µM | KM12 > 100 µM | EKVX > 100 µM | HOP-92 > 100 µM | Malme-3M > 100 µM | COLO 205 > 100 µM | M14 > 100 µM | HOP-18 > 100 µM | SNB-75 > 100 µM | ACHN > 100 µM | OVCAR-4 > 100 µM | SNB-78 > 100 µM | SF-539 > 100 µM | SW-620 > 100 µM | NCI-H226 > 100 µM | SN12C > 100 µM | NCI-H522 > 100 µM | RXF 393 > 100 µM | OVCAR-5 > 100 µM | SK-MEL-5 > 100 µM | HCT-116 > 100 µM | NCI-H23 > 100 µM | SNB-19 > 100 µM | HL-60 > 100 µM | UACC-62 > 100 µM | LXFL 529 > 100 µM | A549 > 100 µM | HCC 2998 > 100 µM | NCI-H460 > 100 µM | IGROV-1 > 100 µM | UACC-257 > 100 µM | OVCAR-3 > 100 µM | M19-MEL > 100 µM | HT-29 > 100 µM | DMS-114 > 100 µM | HOP-62 > 100 µM | OVCAR-8 > 100 µM | A498 > 100 µM | KM-20L2 > 100 µM | U-251 > 100 µM | CCRF-CEM > 100 µM | TK-10 > 100 µM | SK-MEL-28 > 100 µM | 786-0 > 100 µM | DLD-1 > 100 µM
> 100 µM: HCT-15
